The values that follow come from the OligoGym collection.

Values joined by “and” are separate entries in the source; they are usually repeats but may differ in a detail not shown here. Equal entries are not always repeated. After the bases stand the sugars from the 5' end (letter, count) and the backbone: PS all phosphorothioate, else s phosphorothioate and o phosphodiester by linkage. Methylation of C is not given here. k = constrained ethyl (cEt); d = 2'-deoxy (DNA)

The target in this series is MALAT1. Particulars: ASO, A431, 0.005 µM.
As to AAAAAAGGCTTAGCGC (sugars k3 d10 k3, PS), the target mRNA inhibition is 0%.
The value for AAAAACTTATCTGCGG (sugars k3 d10 k3, PS) was 49%; that for AAAACGAATTCAGGGT (sugars k3 d10 k3, PS) was 25%.
As to AAAACTCCCCCCCGCC (sugars k3 d10 k3, PS), the target mRNA inhibition was -4%.
With AAAAGCTTGTTCACCT (sugars k3 d10 k3, PS), the target mRNA inhibition was found to be 21%.
For the sequence AAACGAATTCAGGGTG (sugars k3 d10 k3, PS), the target mRNA inhibition was determined as 23%.
Take AAACGGGTCATCAAAC (sugars k3 d10 k3, PS): the target mRNA inhibition turned out to be 19%.
As to AAACTAAATCATTGGG (sugars k3 d10 k3, PS), the target mRNA inhibition worked out at 43%.
On to AAACTTGCCATCTACT (sugars k3 d10 k3, PS), for which the target mRNA inhibition was -4%.
The figure for AAAGACCTCGACACCA (sugars k3 d10 k3, PS) is 15%; for AAAGATTTGAGCTGCA (sugars k3 d10 k3, PS) it is -4%.
The value for AAAGCGAGTTCAAGTG (sugars k3 d10 k3, PS) was -12%; that for AAATAAGCACTTATCC (sugars k3 d10 k3, PS) was 18%; that for AAATCGCCATGGAAAG (sugars k3 d10 k3, PS) was 1%.
In the case of AAATGGTAGATTCCGT (sugars k3 d10 k3, PS), the target mRNA inhibition was 60% and 62% and 50%.
The value for AACAATCACTACTCCA (sugars k3 d10 k3, PS) was 26%.
The value for AACAGCACAGCGGTAC (sugars k3 d10 k3, PS) was 2%; that for AACATAGTTCAACCCA (sugars k3 d10 k3, PS) was 12%.
The figure for AACATTGGCACACAGC (sugars k3 d10 k3, PS) is 54%; for AACCAGGAGTGCCAAC (sugars k3 d10 k3, PS) it is -23%; for AACCCCCAGTTCAATA (sugars k3 d10 k3, PS) it is 20%.
Turning to AACCTGGGCTCCCGGA (sugars k3 d10 k3, PS), the target mRNA inhibition was found to be 30%.
As for AACTCCCCCATTATAT (sugars k3 d10 k3, PS), the target mRNA inhibition is -1%.
The figure for AACTCCCCCCCGCCTC (sugars k3 d10 k3, PS) is 6%; for AACTCGCATCACCGGA (sugars k3 d10 k3, PS) it is 21%.
Regarding AACTGCTTGCAGTCCT (sugars k3 d10 k3, PS), the target mRNA inhibition is 5%.
For AACTGGGAATACTCTT (sugars k3 d10 k3, PS), the target mRNA inhibition was 22%.
Regarding AACTTATCTGCGGTTT (sugars k3 d10 k3, PS), the target mRNA inhibition was 6%.
Turning to AACTTCAACATTTGGC (sugars k3 d10 k3, PS), the target mRNA inhibition was 56%.
The value for AAGAGATACCTGTCTG (sugars k3 d10 k3, PS) was 22%; that for AAGAGCCAAGCACTCA (sugars k3 d10 k3, PS) was 12%.
As for AAGATAGCAGCACAAC (sugars k3 d10 k3, PS), the target mRNA inhibition was 12%.
The value for AAGATATTGTGCTGTT (sugars k3 d10 k3, PS) was 13%.
The figure for AAGCACTCATATGCAA (sugars k3 d10 k3, PS) is -2%; for AAGCCCTCTCAGCCAC (sugars k3 d10 k3, PS) it is 38%.
The figure for AAGGATGTATATAGTT (sugars k3 d10 k3, PS) is 21%; for AAGGCTCGATGGAAAA (sugars k3 d10 k3, PS) it is 7%.
AAGGCTTCAGTCCCCT (sugars k3 d10 k3, PS): the target mRNA inhibition stood at 14%.
The figure for AAGTAAGCCCCACCCC (sugars k3 d10 k3, PS) is 37%; for AAGTAGTTCTTCGGTT (sugars k3 d10 k3, PS) it is 10%.
As to AAGTCAAGCTCCTGAC (sugars k3 d10 k3, PS), the target mRNA inhibition turned out to be 4%.
On to AAGTTGGTAATTACTC (sugars k3 d10 k3, PS), for which the target mRNA inhibition amounted to 22%.
The value for AAGTTTTCAGCAGTAG (sugars k3 d10 k3, PS) was 8%.
The figure for AATACTCTTCCAAGGA (sugars k3 d10 k3, PS) is 15%; for AATAGCAGCGGGATCA (sugars k3 d10 k3, PS) it is 34%.
The value for AATATTTGCCCCTCCC (sugars k3 d10 k3, PS) was 15%; that for AATCGGAGCAGCACGG (sugars k3 d10 k3, PS) was 26%; that for AATGCATTCTAATAGC (sugars k3 d10 k3, PS) was 17%.
AATGGCGGACTTTCTC (sugars k3 d10 k3, PS): the target mRNA inhibition is 0%.
As to AATTAAATTGATGGGC (sugars k3 d10 k3, PS), the target mRNA inhibition came out at 17%.
The value for AATTCACCAAGGAGCT (sugars k3 d10 k3, PS) was 35%; that for AATTGTAGTTAATGTC (sugars k3 d10 k3, PS) was 36%.
As to AATTTATAGACCCCTG (sugars k3 d10 k3, PS), the target mRNA inhibition stood at 4%.
The figure for AATTTCCTTAGTTGGC (sugars k3 d10 k3, PS) is 68% and 93%.
The figure for AATTTTGAGTATGCTG (sugars k3 d10 k3, PS) is 54% and 71%; for ACAACATATTGCCGAC (sugars k3 d10 k3, PS) it is 10%.
ACAAGATTCATGAGTA (sugars k3 d10 k3, PS): the target mRNA inhibition amounted to 27%.
Consider ACAAGGATCCAAGCTA (sugars k3 d10 k3, PS), for which the target mRNA inhibition was -7%.
The value for ACAAGTCCTACAATTT (sugars k3 d10 k3, PS) was 31%.
With ACACACTACCATATCC (sugars k3 d10 k3, PS), the target mRNA inhibition was -3%.
As for ACACTGGTTCCTGGAA (sugars k3 d10 k3, PS), the target mRNA inhibition is 48%.
The value for ACAGAGCTGCTCCCCG (sugars k3 d10 k3, PS) was 18%; that for ACAGCGGTACACTCCT (sugars k3 d10 k3, PS) was 42%; that for ACAGGAACAAGTCCTA (sugars k3 d10 k3, PS) was 10%.
The figure for ACATAGTTCAACCCAC (sugars k3 d10 k3, PS) is 18%.
In the case of ACATGCAATACTGCAG (sugars k3 d10 k3, PS), the target mRNA inhibition came out at 3%.
The value for ACATTCAAGCTGAACT (sugars k3 d10 k3, PS) was -5%.
The figure for ACATTTGGCCTACTCA (sugars k3 d10 k3, PS) is 46%; for ACCAACCCCCAGTTCA (sugars k3 d10 k3, PS) it is 28%.
The figure for ACCCAAAAGCCCTCTC (sugars k3 d10 k3, PS) is 13%.
On to ACCCACAAACTTGCCA (sugars k3 d10 k3, PS), for which the target mRNA inhibition was -2%.
ACCCAGAAGTGTTTAC (sugars k3 d10 k3, PS): the target mRNA inhibition stood at 16%.
The figure for ACCCAGTTTGTCAATA (sugars k3 d10 k3, PS) is 10%; for ACCCCCACGCCAACAC (sugars k3 d10 k3, PS) it is 23%.
The value for ACCCTCTAAGAGACAT (sugars k3 d10 k3, PS) was 35%.
With ACCGCACAGCTCGGGC (sugars k3 d10 k3, PS), the target mRNA inhibition was 5%.
For ACCTCCGTCATGTTTT (sugars k3 d10 k3, PS), the target mRNA inhibition was 43%.
With ACCTGGGCTCCCGGAG (sugars k3 d10 k3, PS), the target mRNA inhibition worked out at 19%.
The value for ACCTGGGTCAGCTGTC (sugars k3 d10 k3, PS) was 14%; that for ACCTTCCGCCGCCTCT (sugars k3 d10 k3, PS) was 33%.
The value for ACCTTGAAACCGATTA (sugars k3 d10 k3, PS) was 45%; that for ACCTTTTACTCTGATC (sugars k3 d10 k3, PS) was 34%.
As for ACGGATTTTTACCAAC (sugars k3 d10 k3, PS), the target mRNA inhibition amounted to 34%.
With ACGGGTCATCAAACAC (sugars k3 d10 k3, PS), the target mRNA inhibition was 14%.
The value for ACTAGTGGTTCCCAAT (sugars k3 d10 k3, PS) was 33%.
On to ACTATAGCATCTGTGG (sugars k3 d10 k3, PS), for which the target mRNA inhibition is 9%.
As for ACTCCCCCCCGCCTCA (sugars k3 d10 k3, PS), the target mRNA inhibition turned out to be 26%.
The figure for ACTGAAAACTCCCCCC (sugars k3 d10 k3, PS) is -3%; for ACTGATCACTTTAGAG (sugars k3 d10 k3, PS) it is 36%; for ACTGATTTTAAGGTTG (sugars k3 d10 k3, PS) it is 26%.
The figure for ACTTAAATTACTAGCG (sugars k3 d10 k3, PS) is -10%.
For the sequence ACTTATCAATTCACCA (sugars k3 d10 k3, PS), the target mRNA inhibition is 28%.
For the sequence ACTTATCTGCGGTTTC (sugars k3 d10 k3, PS), the target mRNA inhibition is 71% and 53%.
The figure for ACTTCCCCTTCTAGCT (sugars k3 d10 k3, PS) is 36%; for ACTTCCGTTACGAAAG (sugars k3 d10 k3, PS) it is 1%.
Turning to ACTTTAAGCCTTCGGT (sugars k3 d10 k3, PS), the target mRNA inhibition came out at 13%.
The value for ACTTTCCATTACGCAA (sugars k3 d10 k3, PS) was 9%; that for AGAACAACTCGCATCA (sugars k3 d10 k3, PS) was 12%; that for AGACAAGATTCATGAG (sugars k3 d10 k3, PS) was 50%.
